These are literature values, as cited in US8633323B2, “Process for preparing bis(thiohydrazide amides)” (Synta Pharmaceuticals Corp., priority 2008, dated 2014).

For data set [1] the following is noted: background statement: effective administration has been challenging.
Data set [2] deals with stage 1V metastatic melanoma. The conditions noted are these: in combination with Taxol, in relation to patients treated with Taxol alone; patients suffering from stage 1V metastatic melanoma.

For the molecule `CN(NC(=O)CC(=O)NN(C)C(=S)c1ccccc1)C(=S)c1ccccc1` [N-malonyl-bis(N′-methyl-N′-thiobenzoylhydrazide)], the solubility result in data set [1] is reported as “low solubility”. The time to progress entry in data set [2] is listed as “increase the time to progress”.
